Reference: patent publication US20100022541A1, “Chemical inhibitors of bacterial heptose synthesis, methods for their preparation and biological applications of said inhibitors” (priority 2006, published 2010)

Biological target: T1, RfaE (Escherichia coli, UniProt P76658)
T1 construct: made in house; host or cells: E. coli
Experiment: Inhibition of the enzymatic activity of RfaE (HTS luminescent or fluorescent biochemical assay)
Parameters: species or system E. coli
Conditions: for IC50: inhibitor tested at 6 to 10 concentrations, 30 min pre-incubation at room temperature
Method: According to another object, the invention also relates to a method for assessing RfaE enzymatic activity. • Said method comprises • pre-incubating at room temperature • DMSO or inhibitor to be tested dissolved in DMSO and RfaE in an assay buffer • and either • adding a reaction mixture composed of RfaE, β-heptose-7-phosphate, ATP, in the assay buffer and incubating at room temperature • adding a revelation mixture composed of luciferase, D-luciferin and N-acetylcysteamine • measuring the luminescence intensity and converting into inhibition % to further calculate the IC50 values; • or • adding a reaction mixture composed of RfaE, β-heptose-7-phosphate ATP, pyruvate kinase, phosphoenolpyruvate, lactate dehydrogenase and NADH in said assay buffer, • measuring the fluorescence intensity of NADH kinetically and deriving inhibition % from fitted initial velocities, to further calculate the IC50 values.
Inhibition of the Enzymatic Activity of RfaE
RfaE is a kinase belonging to the ribokinase family. It catalyses an essential step of the biosynthesis of L-ADP-Heptose, namely the phosphorylation of β-heptose-7-phosphate (H7P) into β-heptose-1,7-bisphosphate (H17P). RfaE assays as described in the literature are essentially based on direct HLPC detection of the substrates H7P and ATP, and of the products H17P and ADP, raising obvious limitations for HTS applications. The assays described below are based either on luminescent ATP detection, or on fluorescent ADP detection. They are easily amenable to miniaturized formats and fast readouts as required by HTS.
The assay buffer “AB” contains 50 mM Hepes pH7.5, 1 mM MnCl2, 25 mM KCl, 0.012% Triton-X100 and 1 mM DTT. The following components are added in a white polystyrene Costar plate up to a final volume of 31 μL: 3 μL DMSO, or inhibitor dissolved in DMSO and 28 μL RfaE in AB. After 30 min of pre-incubation at room temperature, 29 μL of Substrates mix in AB are added in each well to a final volume of 60 μL. This reaction mixture is then composed of 3 nM RfaE (produced in house from E. coli), 0.2 μM β-heptose-7-phosphate (in house synthesis) and 0.2 μM ATP (Sigma) in assay buffer. After 40 min of incubation at room temperature, 200 μL of the revelation mix are added to a final volume of 260 μL, including the following constituents at the respective final concentrations: 2 nM luciferase (Sigma), 30 μM D-luciferin (Sigma), 100 μM N-acetylcysteamine (Aldrich). Luminescence intensity is immediately measured on an Analyst-HT (Molecular Devices) and converted into inhibition percentages. For IC50 determinations, the inhibitor is tested at 6 to 10 different concentrations, and the related inhibitions are fitted to a classical langmuir equilibrium model using XLFIT (IDBS).
The assay buffer “AB” contains 50 mM Hepes pH7.5, 1 mM MnCl2, 25 mM KCl, 0.012% Triton-X100 and 1 mM DTT. The following components are added in a black polystyrene Costar plate up to a final volume of 50 μL: 5 μL DMSO, or inhibitor dissolved in DMSO and 45 μL RfaE in AB. After 30 min of pre-incubation at room temperature, 50 μL of Substrates-revelation mix in AB are added in each well to a final volume of 100 μL. This reaction mixture is then composed of 66 μM RfaE (produced in house from E. coli), 1 μM β-heptose-7-phosphate (in house synthesis), 50 μM ATP (Sigma), 5 u/mL Pyruvate Kinase (Sigma), 50 μM phosphoenolpyruvate (Sigma), 5 u/mL Lactate dehydrogenase (Sigma) and 2.5 μM NADH (Sigma) in assay buffer. Fluorescence intensity of NADH (λex=360 nm, λem=520 nm) is immediately measured kinetically by a Fluostar Optima (BMG). Inhibition percentages are derived from fitted initial velocities. For IC50 determinations, the inhibitor is tested at 6 to 10 different concentrations, and the related inhibitions are fitted to a classical langmuir equilibrium model using XLFIT (IDBS).

T1 sequence (P76658 whole entry): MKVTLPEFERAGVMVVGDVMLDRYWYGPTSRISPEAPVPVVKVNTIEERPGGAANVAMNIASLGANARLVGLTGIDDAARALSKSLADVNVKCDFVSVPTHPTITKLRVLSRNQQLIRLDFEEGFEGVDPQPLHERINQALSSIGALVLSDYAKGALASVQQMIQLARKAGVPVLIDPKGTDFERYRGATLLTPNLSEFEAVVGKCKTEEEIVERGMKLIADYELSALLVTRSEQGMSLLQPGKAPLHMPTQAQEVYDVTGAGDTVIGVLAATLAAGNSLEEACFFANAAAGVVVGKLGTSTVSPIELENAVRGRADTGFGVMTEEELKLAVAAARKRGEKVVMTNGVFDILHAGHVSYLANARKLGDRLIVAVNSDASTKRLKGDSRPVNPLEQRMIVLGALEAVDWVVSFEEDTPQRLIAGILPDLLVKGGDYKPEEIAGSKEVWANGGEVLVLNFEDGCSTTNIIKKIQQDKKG

Compound	IC50 [µM]	Inhibition of RfaE biochemical activity (FIG. 1) (dose-response, FIG. 1)
Cc1nc(-c2ccccc2)sc1C(=O)N(CC(=O)O)Cc1ccccn1 [IX, [[(4-methyl-2-phenyl-1,3-thiazol-5-yl)carbonyl](pyridin-2-ylmethyl)amino]acetic Acid]	52	
Cc1nc(-c2ccc3[nH]ccc3c2)sc1C(=O)N(CC(=O)O)Cc1nc2ccccc2s1 [XXXVIII, ((1,3-benzothiazol-2-ylmethyl){[2-(1H-indol-5-yl)-4-methyl-1,3-thiazol-5-yl]carbonyl}amino)acetic Acid]	0.33	
Cc1oc(-c2cccc(O)c2)nc1C(=O)N(CC(=O)O)Cc1ccccn1 [XXV, [{[2-(3-hydroxyphenyl)-5-methyl-1,3-oxazol-4-yl]carbonyl}(pyridin-2-ylmethyl)amino]acetic Acid]	50	
O=C(O)CN(Cc1ccccn1)C(=O)c1nc(-c2ccccc2)oc1COCc1ccccc1 [I, {[[5-(benzyloxy)methyl-2-phenyl-1,3-oxazol-4-yl]carbonyl](pyridin-2-ylmethyl)amino}acetic Acid]	265	
Cc1nc(-c2ccccc2)oc1C(=O)N(CC(=O)O)Cc1ccc(-c2ccccc2F)o1 [XXXII, ([(4-methyl-2-phenyl-1,3-oxazol-5-yl)carbonyl]{[5-(2-fluorophenyl)-2-furyl]methyl}amino)acetic Acid]	125	
Cc1nn(-c2ccccc2)nc1C(=O)N(CC(=O)O)Cc1ccccn1 [XI, [[(5-methyl-2-phenyl-2H-1,2,3-triazol-4-yl)carbonyl](pyridin-2-ylmethyl)amino]acetic Acid]	48	
Cc1oc(-c2ccc(C(F)(F)F)cc2)nc1C(=O)N(CC(=O)O)Cc1ccccn1 [XVI, [({5-methyl-2-[4-(trifluoromethyl)phenyl]-1,3-oxazol-4-yl}carbonyl)(pyridin-2-ylmethyl)amino]acetic Acid]	142	
CC(=O)Oc1cccc(-c2nc(C)c(C(=O)N(CC(=O)O)Cc3ccccn3)o2)c1 [IV, [({2-[3-(acetyloxy)phenyl]-4-methyl-1,3-oxazol-5-yl}carbonyl)(pyridin-2-ylmethyl)amino]acetic Acid]	52	
Cc1oc(-c2ccccc2Br)nc1C(=O)N(CC(=O)O)Cc1ccccn1 [XIX, [{[2-(2-bromophenyl)-5-methyl-1,3-oxazol-4-yl]carbonyl}(pyridin-2-ylmethyl)amino]acetic Acid]	44	
O=C(O)CN(Cc1ccccn1)C(=O)c1nc(-c2ccccc2)oc1CN1CCOCC1 [II, [{[5-(morpholin-4-ylmethyl)-2-phenyl-1,3-oxazol-4-yl]carbonyl}(pyridin-2-ylmethyl)amino]acetic Acid]	197	
Cc1oc(-c2ccc(N)cc2)nc1C(=O)N(CC(=O)O)Cc1ccccn1 [XXVII, [{[2-(4-aminophenyl)-5-methyl-1,3-oxazol-4-yl]carbonyl}(pyridin-2-ylmethyl)amino]acetic Acid]	22	
Cc1nc(-c2cccc([N+](=O)[O-])c2)sc1C(=O)N(CC(=O)O)Cc1nc2ccccc2s1 [XXXIX, ((1,3-benzothiazol-2-ylmethyl){[4-methyl-2-(3-nitrophenyl)-1,3-thiazol-5-yl]carbonyl}amino)acetic Acid]	0.5	
Cc1cccc(C)c1-c1nc(C)c(C(=O)N(CC(=O)O)Cc2nc3ccccc3s2)s1 [XL, ((1,3-benzothiazol-2-ylmethyl){[4-methyl-2-(2,6-dimethylphenyl)-1,3-thiazol-5-yl]carbonyl}amino)acetic Acid]	50.5	
COc1cccc(-c2nc(C)c(C(=O)N(CC(=O)O)Cc3ccccn3)o2)c1 [III, [{[2-(3-methoxyphenyl)-4-methyl-1,3-oxazol-5-yl]carbonyl}(pyridin-2-ylmethyl)amino]acetic Acid]	17	
COc1cccc(-c2nc(C)c(C(=O)N(CC(=O)O)Cc3nc4cc(OC)ccc4s3)o2)c1 [XXX, ((5-methoxy-1,3-benzothiazol-2-ylmethyl){[2-(3-methoxyphenyl)-4-methyl-1,3-oxazol-5-yl]carbonyl}amino)acetic Acid]	1.09	
Cc1oc(-c2ccc(O)cc2)nc1C(=O)N(CC(=O)O)Cc1ccccn1 [XXIV, [{[2-(4-hydroxyphenyl)-5-methyl-1,3-oxazol-4-yl]carbonyl}(pyridin-2-ylmethyl)amino]acetic Acid]	39	
COc1ccc(-c2nc(C(=O)N(CC(=O)O)Cc3ccccn3)c(C)o2)cc1 [Example XXI, [{[2-(4-methoxyphenyl)-5-methyl-1,3-oxazol-4-yl]carbonyl}(pyridin-2-ylmethyl)amino]acetic Acid]	75	
Cc1oc(-c2ccccc2C(F)(F)F)nc1C(=O)N(CC(=O)O)Cc1ccccn1 [XV, [({5-methyl-2-[2-(trifluoromethyl)phenyl]-1,3-oxazol-4-yl}carbonyl)(pyridin-2-ylmethyl)amino]acetic Acid]	121	
Cc1oc(-c2cccc([N+](=O)[O-])c2)nc1C(=O)N(CC(=O)O)Cc1ccccn1 [Example XXIII, [{[5-methyl-2-(3-nitrophenyl)-1,3-oxazol-4-yl]carbonyl}(pyridin-2-ylmethyl)amino]acetic Acid]	3.8	Dose Dependent Inhibition
Cc1nc(-c2ccc(Cl)cc2)oc1C(=O)N(CC(=O)O)Cc1ccccn1 [V, [{[2-(4-chlorophenyl)-4-methyl-1,3-oxazol-5-yl]carbonyl}(pyridin-2-ylmethyl)amino]acetic acid]	54	
COc1cccc(-c2nc(C(=O)N(CC(=O)O)Cc3ccccn3)c(C)o2)c1 [Example XX, [{[2-(3-methoxyphenyl)-5-methyl-1,3-oxazol-4-yl]carbonyl}(pyridin-2-ylmethyl)amino]acetic Acid]	15	
COc1cccc(-c2nc(C)c(C(=O)N(CC(=O)O)C(C)c3ccccn3)o2)c1 (centres unmarked) [XXXV, [{[2-(3-methoxyphenyl)-4-methyl-1,3-oxazol-5-yl]carbonyl}(1-pyridin-2-ylethyl)amino]acetic Acid]	19.2	
Cc1nc(-c2ccc3ccccc3c2)sc1C(=O)N(CC(=O)O)Cc1nc2ccccc2s1 [XLI, ((1,3-benzothiazol-2-ylmethyl){[4-methyl-2-(2-naphthyl)-1,3-thiazol-5-yl]carbonyl}amino)acetic Acid]	0.48	
O=C(O)CN(Cc1ccccn1)C(=O)c1nc(-c2ccccc2)oc1C(F)(F)F [XIII, [{[2-phenyl-5-(trifluoromethyl)-1,3-oxazol-4-yl]carbonyl}(pyridin-2-ylmethyl)amino]acetic Acid]	80	
Cc1oc(-c2ccccc2[N+](=O)[O-])nc1C(=O)N(CC(=O)O)Cc1ccccn1 [Example XXII, [{[5-methyl-2-(2-nitrophenyl)-1,3-oxazol-4-yl]carbonyl}(pyridin-2-ylmethyl)amino]acetic Acid]	141	
Cc1oc(-c2ccccc2)nc1C(=O)N(CC(=O)O)Cc1ccccn1 [XII, [[(5-methyl-2-phenyl-1,3-oxazol-4-yl)carbonyl](pyridin-2-ylmethyl)amino]acetic Acid]	51	
CC(=O)c1cccc(-c2nc(C)c(C(=O)N(CC(=O)O)Cc3ccccn3)s2)c1 [XXXVI, [{[2-(3-acetylphenyl)-4-methyl-1,3-thiazol-5-yl]carbonyl}(pyridin-2-ylmethyl)amino]acetic Acid]	216	
O=C(O)CN(Cc1ccccn1)C(=O)c1ccc(-c2ccccc2)o1 [VII, [(5-phenyl-2-furoyl)(pyridin-2-ylmethyl)amino]acetic Acid]	100	
